Source: patent US7105527B2, “N4-acylcytosine nucleosides for treatment of viral infections” (priority 2001, dated 2006)
Like-named read-outs stand apart in the source and are kept apart here.

Assays:
[1] = system: MT-2 cells; assay: Cytotoxicity assay in MT-2 cells; assay type: cell-based
Method: (§1) The toxicity of the compounds was assessed in Vero, human PBM, CEM (human lymphoblastoid), MT-2, and HepG2 cells, as described previously (Schinazi […]., Cannon D. L., Xie […]., Smith […]. […] Cycloheximide was included as positive cytotoxic control, and untreated cells exposed to solvent were included as negative controls. The cytotoxicity IC50 was obtained from the concentration-response curve using the median effective method described previously (Chou […]. […] Belen'kii M. S. & Schinazi R. F.

[2] = system: HIV-1RF; assay: Anti-HIV (in MT-2 cells) assay, viral RNA accumulation; assay type: cell-based; conditions: EC90, MT-2 cells, read-out: Anti-HIV-1 activity in different cells (EC90, μM) MT-2
Method: (§2) In a second antiviral testing system, the potency of the compounds was determined by measurement of viral RNA accumulation in HIV-1RF infected MT-2 cells (Bacheler L T, Paul M, Otto M J, Jadhav P K, Stone B A & Miller J A (1994) An assay for HIV RNIn infected cell lysates, and its use for rapid evaluation of antiviral efficacy. Antivir. Chem. Chemother. 5:111–121). The virus titer was established to determine the dilution producing 15 to 30 ng/RNA per well of HIV RNIn 3 days of infection. HIV-1 RNA was quantified using biotinylated capture and alkaline phosphatase-derivatized reporter oligonucleotides as described previously (Charvet A-S, Camplo M, Faury P, Graciet J C, Mourier N, Chermann J C & Kraus J L (1994) Inhibition of human immunodeficiency virus type 1 replication by phosphonoformate- and phosphonoacetate-2′,3′-dideoxy-3′-thiacytidine conjugates. J. Med. Chem. 37:2216–2223). In a third system, the effect of analogs on the replication of HIV-1NL4-3 was determined via the InterCompany Consortium consensus p24 assay as previously described (Jadhav P K & MacKay M F (1997) Cyclic urea amide: HIV-1 protease inhibitors with low nanomolar potency against both wild types and protease inhibitor resistant mutants of HIV. J. Med. Chem. 40:181–190). Recombinant viruses were recovered by transfecting the appropriate NL4-3 plasmid by lipofection. Virus stocks recovered 7 to 10 days post-transfection were titered on MT-4 cells to determine if the dilution produced 1,000 to 3,000 ng p24 in 4 days. This dilution was then used in drug susceptibility assays, where drug was added 24 h post infection of cells, and p24 quantified by ELISA 3 days later.

[3] = system: HIV-1LAl; assay: Anti-HIV (in PBM cells) assay, reverse transcriptase readout; assay type: cell-based
Method: Anti-HIV-1 activity of the compounds was determined in human peripheral blood mononuclear (PBM) cells as described previously (Schinazi […]., Cannon D., Mathis R., Lloyd R. M. Jr., […]., St. Clair M., Wilson J., Furman P. A., Painter G., Choi […]. Antimicrob. Agents Chemother. 1992, 36, 2423; Schinazi […]., Cannon D., Xie […]., Smith G., Hahn E. Antimicrob. Agents Chemother. 1990, 34, 1061). Stock solutions ([…]) of the compounds were prepared in sterile DMSO and then diluted to the desired concentration in growth medium. […] Virus obtained from the cell supernatant was quantified on day 6 after infection by a reverse transcriptase assay using (rA)n.(dT)12.18 as template-primer. […] AZT was included as positive control. The antiviral EC50 and EC90 were obtained from the concentration-response curve using the median effective method described previously (Chou […]. Enzyme Regul. 1984, 22, 27-55; Belen'kii M. S. & Schinazi R. F. Antiviral Res. 1994, 25, 1-11).

[4] = system: Vero cells; assay: Cytotoxicity assay in Vero cells; assay type: cell-based
Method: as §1

[5] = system: human PBM cells; assay: Cytotoxicity assay in PBM cells; assay type: cell-based
Method: as §1

[6] = system: HepG2 cells; assay: Cytotoxicity assay in HepG2 cells; assay type: cell-based
Method: as §1

[7] = system: CEM (human lymphoblastoid) cells; assay: Cytotoxicity assay in CEM cells; assay type: cell-based
Method: as §1

[8] = Cytotoxicity assay in MT-2 cells; assay type: cell-based; conditions: human, Table 1, read-out: Cytotoxicity in different cells (IC50, μM) MT-2
Method: as §1

[9] = system: HIV-1NL4-3; assay: Anti-HIV assay in MT-4 cells, consensus p24 assay; assay type: cell-based; conditions: Human immunodeficiency virus 1, MT4, Table 1, read-out: Anti-HIV-1 activity in different cells (EC90, μM) MT-4
Method: as §2

[10] = Cytotoxicity assay in Vero cells; assay type: cell-based; conditions: African green monkey, Table 1, read-out: Cytotoxicity in different cells (IC50, μM) Vero
Method: as §1

[11] = Cytotoxicity assay in PBM cells; assay type: cell-based, human; conditions: human, human PBM cells, Table 1, read-out: Cytotoxicity in different cells (IC50, μM) PBM
Method: as §1

[12] = Cytotoxicity assay in HepG2 cells; assay type: cell-based; conditions: human, Table 1, read-out: Cytotoxicity in different cells (IC50, μM) HepG2
Method: as §1

[13] = Cytotoxicity assay in CEM cells; assay type: cell-based, human; conditions: human, CEM lymphoblastoid cells, Table 1, read-out: Cytotoxicity in different cells (IC50, μM) CEM
Method: as §1

[14] = Table 2, read-out: Cytotoxicity in different cells (IC50, μM) MT-2
[15] = Table 2, read-out: Anti-HIV-1 activity in different cells (EC90, μM) PBM
[16] = Table 2, read-out: Cytotoxicity in different cells (IC50, μM) Vero
[17] = Table 2, read-out: Cytotoxicity in different cells (IC50, μM) PBM
[18] = Table 2, read-out: Cytotoxicity in different cells (IC50, μM) HepG2
[19] = Table 2, read-out: Cytotoxicity in different cells (IC50, μM) CEM
[20] = Human immunodeficiency virus 1, MT2, Table 1
[21] = Human immunodeficiency virus 1, PBMC, Table 1, read-out: Anti-HIV-1 activity in different cells (EC90, μM) PBM
[22] = Table 1, read-out: Cytotoxicity in different cells (IC50, μM) MT-2
[23] = Table 1, read-out: Anti-HIV-1 activity in different cells (EC90, μM) PBM
[24] = Table 1, read-out: Cytotoxicity in different cells (IC50, μM) Vero
[25] = Table 1, read-out: Cytotoxicity in different cells (IC50, μM) PBM
[26] = Table 1, read-out: Cytotoxicity in different cells (IC50, μM) HepG2
[27] = Table 1, read-out: Cytotoxicity in different cells (IC50, μM) CEM

Cc1ccccc1C(=O)Nc1nc(=O)n([C@H]2C=C[C@@H](CO)O2)cc1F [Compound 50, β-D-2′,3′-Didehydro-2′,3′-dideoxy-5-fluoro-N^4-o-toluoylcytidine]
IC50 [1, 14]: > 50 µM
EC90 ([2]; Table 2): > 50 µM
EC90 [3, 15]: 56.8 µM
IC50 [4, 16]: > 100 µM
IC50 [5, 17]: 58.4 µM
IC50 [6, 18]: > 100 µM
IC50 [7, 19]: 46.4 µM

COc1ccccc1C(=O)Nc1nc(=O)n([C@H]2C=C[C@@H](CO)O2)cc1F [Compound 44, β-D-N^4-o-Anisoyl-2,3′-didehydro-2,3-dideoxy-5-fluorocytidine]
IC50 [1, 14]: > 50 µM
EC90 ([2]; Table 2): > 50 µM
EC90 [3, 15]: 14.6 µM
IC50 [4, 16]: 5.6 µM
IC50 [5, 17]: 13.1 µM
IC50 [6, 18]: 3.4 µM
IC50 [7, 19]: 3.9 µM

O=C(Nc1nc(=O)n([C@H]2CC[C@@H](CO)O2)cc1F)c1ccc(F)cc1 [Compound 11, β-D-2′,3′-Dideoxy-5-fluoro-N^4-(4-fluorobenzoyl)cytidine]
IC50 [8]: > 50 µM
EC90 [2, 20]: 0.32 µM
EC90 [3, 21]: 0.027 µM
EC90 [9]: 0.61 µM
IC50 [10]: > 100 µM
IC50 [11]: > 100 µM
IC50 [12]: > 100 µM
IC50 [13]: 45.7 µM

O=C(Nc1nc(=O)n([C@H]2CC[C@@H](CO)O2)cc1F)c1cccc(Br)c1 [Compound 16, β-D-N^4-(3-Bromobenzoyl)-2′,3′-dideoxy-5-fluorocytidine]
IC50 [8]: > 50 µM
EC90 [2, 20]: 0.51 µM
EC90 [3, 21]: 0.145 µM
EC90 [9]: 0.42 µM
IC50 [10]: 80.6 µM
IC50 [11]: > 100 µM
IC50 [12]: > 100 µM
IC50 [13]: 40.6 µM

COc1ccc(C(=O)Nc2nc(=O)n([C@H]3CC[C@@H](CO)O3)cc2F)cc1 [Compound 17, β-D-N^4-p-Anisoyl-2′,3′-dideoxy-5-fluorocytidine]
IC50 [1, 22]: 16 µM
EC90 ([2]; Table 1): 6 µM
EC90 [3, 23]: 8.31 µM
IC50 [4, 24]: 5.3 µM
IC50 [5, 25]: 69.2 µM
IC50 [6, 26]: 4.5 µM
IC50 [7, 27]: 31.6 µM

O=C(Nc1nc(=O)n([C@H]2C=C[C@@H](CO)O2)cc1F)c1cccnc1 [Compound 55, β-D-2, 3′-Didehydro-2′,3′-dideoxy-5-fluoro-N^4-nicotinoylcytidine]
IC50 [1, 14]: > 50 µM
EC90 ([2]; Table 2): 29 µM
EC90 [3, 15]: 42.3 µM
IC50 [4, 16]: 13.1 µM
IC50 [5, 17]: 13.8 µM
IC50 [6, 18]: 10.3 µM
IC50 [7, 19]: 6.7 µM

O=C(Nc1nc(=O)n([C@H]2CC[C@@H](CO)O2)cc1F)c1ccccc1[N+](=O)[O-] [Compound 20, β-D-2′,3′-Dideoxy-5-fluoro-N^4-(2-nitrobenzoyl)cytidine]
IC50 [1, 22]: > 50 µM
EC90 ([2]; Table 1): 0.7 µM
EC90 [3, 23]: 1.5 µM
IC50 [4, 24]: > 100 µM
IC50 [5, 25]: > 100 µM
IC50 [6, 26]: > 100 µM
IC50 [7, 27]: > 100 µM

O=C(Nc1nc(=O)n([C@H]2C=C[C@@H](CO)O2)cc1F)c1ccc([N+](=O)[O-])cc1 [Compound 45, β-D-2′,3′-Didehydro-2′,3′-dideoxy-5-fluoro-N^4-(4-nitrobenzoyl)cytidine]
IC50 [1, 14]: > 50 µM
EC90 ([2]; Table 2): 0.29 µM
EC90 [3, 15]: 1.7 µM
IC50 [4, 16]: 6.6 µM
IC50 [5, 17]: 3.4 µM
IC50 [6, 18]: 5.6 µM
IC50 [7, 19]: 4.2 µM

O=C(Nc1nc(=O)n([C@H]2C=C[C@@H](CO)O2)cc1F)c1ccccc1[N+](=O)[O-] [Compound 47, β-D-2′,3′-Didehydro-2′,3′-dideoxy-5-fluoro-N^4-(2-nitrobenzoyl)cytidine]
IC50 [1, 14]: > 50 µM
EC90 ([2]; Table 2): > 50 µM
EC90 [3, 15]: 39.9 µM
IC50 [4, 16]: > 100 µM
IC50 [5, 17]: 80 µM
IC50 [6, 18]: > 100 µM
IC50 [7, 19]: > 100 µM

COc1cccc(C(=O)Nc2nc(=O)n([C@H]3C=C[C@@H](CO)O3)cc2F)c1 [Compound 43, β-D-N^4-m-Anisoyl-2′,3′-didehydro-2′,3′-dideoxy-5-fluorocytidine]
IC50 [1, 14]: > 50 µM
EC90 ([2]; Table 2): 0.34 µM
EC90 [3, 15]: 2.1 µM
IC50 [4, 16]: > 100 µM
IC50 [5, 17]: 18.5 µM
IC50 [6, 18]: > 100 µM
IC50 [7, 19]: 24.6 µM

O=C(Nc1nc(=O)n([C@H]2C=C[C@@H](CO)O2)cc1F)c1cc2ccccc2s1 [Compound 56, β-D-2′,3′-Didehydro-2′,3′-dideoxy-5-fluoro-N-(benzo[b]thiophene-2-carbonyl)cytidine]
IC50 [1, 14]: > 50 µM
EC90 ([2]; Table 2): 0.3 µM
EC90 [3, 15]: 0.29 µM
IC50 [4, 16]: 5.6 µM
IC50 [5, 17]: 2.2 µM
IC50 [6, 18]: 1.3 µM
IC50 [7, 19]: 2.8 µM

CCCC(=O)Nc1nc(=O)n([C@H]2CC[C@@H](CO)O2)cc1F [Compound 34, β-D-N^4-Butyryl-2′,3′-dideoxy-5-fluorocytidine]
IC50 [1, 22]: 7.2 µM
EC90 ([2]; Table 1): 0.71 µM
EC90 [3, 23]: 1.6 µM
IC50 [4, 24]: 5.8 µM
IC50 [5, 25]: 17.1 µM
IC50 [6, 26]: 7.6 µM
IC50 [7, 27]: 31.6 µM

Cc1ccccc1C(=O)Nc1nc(=O)n([C@H]2CC[C@@H](CO)O2)cc1F [Compound 24, β-D-2′,3′-Dideoxy-5-fluoro-N^4-o-toluoylcytidine]
IC50 [1, 22]: > 50 µM
EC90 ([2]; Table 1): 6.8 µM
EC90 [3, 23]: 1.2 µM
IC50 [4, 24]: 39.6 µM
IC50 [5, 25]: 20.6 µM
IC50 [6, 26]: > 100 µM
IC50 [7, 27]: 22.5 µM

O=C(Nc1nc(=O)n([C@H]2C=C[C@@H](CO)O2)cc1F)c1cccs1 [Compound 54, β-D-2′,3′-Didehydro-2′,3′-dideoxy-5-fluoro-N^4-(2-thiophenecarbonyl)cytidine]
IC50 [1, 14]: > 50 µM
EC90 ([2]; Table 2): 1.5 µM
EC90 [3, 15]: 1.6 µM
IC50 [4, 16]: 4.8 µM
IC50 [5, 17]: 10.2 µM
IC50 [6, 18]: 2.3 µM
IC50 [7, 19]: 3.9 µM

O=C(Nc1nc(=O)n([C@H]2CC[C@@H](CO)O2)cc1F)c1ccccc1 [Compound 21, β-D-N^4-Benzoyl-2′,3′-dideoxy-5-fluorocytidine]
IC50 [1, 22]: 19 µM
EC90 ([2]; Table 1): 1.2 µM
EC90 [3, 23]: 1.29 µM
IC50 [4, 24]: 5.8 µM
IC50 [5, 25]: 67 µM
IC50 [6, 26]: 15.3 µM
IC50 [7, 27]: 38.5 µM

O=C(Nc1nc(=O)n([C@H]2CC[C@@H](CO)O2)cc1F)c1cccnc1 [Compound 31, β-D-2′,3′-Dideoxy-5-fluoro-N^4-(nicotinoyl)cytidine]
IC50 [1, 22]: > 50 µM
EC90 ([2]; Table 1): 5.9 µM
EC90 [3, 23]: 0.17 µM
IC50 [4, 24]: 28.1 µM
IC50 [5, 25]: 8.8 µM
IC50 [6, 26]: 19.4 µM
IC50 [7, 27]: 5.5 µM
